Source: patent publication US10800791B2, “Triazole ACC inhibitors and uses thereof” (Gilead Apollo, LLC, priority 2015, dated 2020)
Converted amounts (≈) assume the structure as drawn. Like-named read-outs stand apart in the source and are kept apart here.

Assays:
[1] = system: Fusarium moniliforme (Fm); test: Growth inhibition assay of fungal pathogens, Fm; assay type: cell-based; details: Fusarium verticillioides, 48 h, read-out: Concentration at 90% Inhibition Fm
In short: (§1)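 Percent inhibition derived at 48 hours from OD600 and visual scores versus 2% DMSO control, with media+DMSO blank as background. Spore inocula in 17% V8 medium were sized from 48 h growth curves; compounds tested at final 50/10/2 or 2/0.4/0.08 ppm.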

Rhizoctonia solani (Rs) = test: Growth inhibition assay of fungal pathogens, Rs; assay type: cell-based; details: 48 h
[2] = system: Collectotrichum graminicola (Cg); test: Growth inhibition assay of fungal pathogens, Cg; assay type: cell-based; details: 48 h, growth inhibition at 48 hours vs 2% DMSO control
In short: as §1

Diplodia maydis (Dm) = test: Growth inhibition assay of fungal pathogens, Dm; assay type: cell-based; details: Stenocarpella maydis, 48 h, growth inhibition at 48 hours vs 2% DMSO control
In short: as §1

C. krusei = test: Antifungal Activity Assay (broth microtiter MIC), C. krusei; assay type: cell-based, Candida krusei; details: Pichia kudriavzevii, ATCC6258, 48 h
In short: (§2)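 Endpoint: lowest concentration visibly inhibiting growth relative to control after 48 h. Inoculum of 2.5×10^3 CFU/mL final in RPMI 1640+MOPS, prepared from overnight 35° C agar cultures; test compounds diluted in water to 128 μg/mL before plating.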

fungal (fACC2) = fungal (fACC2) (UniProt Q00955); details: read-out: fACC2 (in vitro ACC2 Inhibition Assay, IC50); Table 2b, additional results; ADP-Glo, 5 nM ACC2, 20 μM ATP, 20 μM acetyl-CoA
Septoria tritici (St) = test: Growth inhibition assay of fungal pathogens, St; assay type: cell-based; details: Zymoseptoria tritici, 48 h, growth inhibition at 48 hours vs 2% DMSO control
In short: as §1

C. albicans = test: Antifungal Activity Assay (broth microtiter MIC), C. albicans; assay type: cell-based, Candida albicans; details: Candida albicans, ATCC90028, 48 h
In short: as §2

Botrtyis cinerea (Bc) = test: Growth inhibition assay of fungal pathogens, Bc; assay type: cell-based; details: 48 h, growth inhibition at 48 hours vs 2% DMSO control
In short: as §1

[3] = system: Phytophthora capsici (Pc); test: Growth inhibition assay of fungal pathogens, Pc; assay type: cell-based; details: 48 h
In short: as §1

C. parapsilosis = test: Antifungal Activity Assay (broth microtiter MIC), C. parapsilosis; assay type: cell-based, Candida parapsilosis; details: Lodderomyces parapsilosis, ATCC22019, 48 h
In short: as §2

[4] = system: Fusarium virguliforme (Fv); test: Growth inhibition assay of fungal pathogens, Fv; assay type: cell-based; details: 48 h
In short: as §1

human (hACC2) = human (hACC2) (Homo sapiens, UniProt O00763); test: In vitro ACC inhibition assay (ADP-Glo), hACC2; assay type: biochemical; details: Table 2b, additional results, 5 nM ACC2, 20 μM ATP, 20 μM acetyl-CoA
Procedure: The detailed procedure is as follows. […] 10 μL ADP glo reagent was added. […] 20 μL kinase detection reagent was added.

[5] = Fusarium moniliforme, growth inhibition at 48 hours vs 2% DMSO control
[6] = mycelial plugs, growth inhibition at 48 hours vs 2% DMSO control, read-out: Concentration at 90% Inhibition Rs
[7] = Collectotrichum graminicola, read-out: Concentration at 90% Inhibition Cg
[8] = Diplodia maydis, read-out: Concentration at 90% Inhibition Dm
[9] = Table 3b (additional results), ATCC 6258, 3 replicates, MIC recorded at 48 h, read-out: MIC, C. krusei ATCC 6258
[10] = Septoria tritici, read-out: Concentration at 90% Inhibition St
[11] = Table 3b (additional results), ATCC 90028, 3 replicates, MIC recorded at 48 h, read-out: MIC, C. albicans ATCC 90028
[12] = Botrtyis cinerea, read-out: Concentration at 90% Inhibition Bc
[13] = growth inhibition at 48 hours vs 2% DMSO control, read-out: Concentration at 90% Inhibition Pc
[14] = Table 3b (additional results), ATCC 22019, 3 replicates, MIC recorded at 48 h, read-out: MIC, C. parapsilosis ATCC 22019
[15] = growth inhibition at 48 hours vs 2% DMSO control, read-out: Concentration at 90% Inhibition Fv
[16] = read-out: Concentration at 90% Inhibition Rs, Rhizoctonia solani, mycelial plugs, growth inhibition at 48 hours vs 2% DMSO control
[17] = read-out: Concentration at 90% Inhibition Cg, Collectotrichum graminicola
[18] = read-out: Concentration at 90% Inhibition Dm, Diplodia maydis
[19] = read-out: MIC, C. krusei ATCC 6258, Table 3b (additional results), 3 replicates, MIC recorded at 48 h
[20] = read-out: Concentration at 90% Inhibition St, Septoria tritici
[21] = read-out: MIC, C. albicans ATCC 90028, Table 3b (additional results), 3 replicates, MIC recorded at 48 h
[22] = read-out: Concentration at 90% Inhibition Bc, Botrtyis cinerea
[23] = read-out: Concentration at 90% Inhibition Pc, Phytophthora capsici, growth inhibition at 48 hours vs 2% DMSO control
[24] = read-out: MIC, C. parapsilosis ATCC 22019, Table 3b (additional results), 3 replicates, MIC recorded at 48 h
[25] = read-out: Concentration at 90% Inhibition Fv, Fusarium virguliforme, growth inhibition at 48 hours vs 2% DMSO control

human (hACC2), sequence (O00763 whole entry): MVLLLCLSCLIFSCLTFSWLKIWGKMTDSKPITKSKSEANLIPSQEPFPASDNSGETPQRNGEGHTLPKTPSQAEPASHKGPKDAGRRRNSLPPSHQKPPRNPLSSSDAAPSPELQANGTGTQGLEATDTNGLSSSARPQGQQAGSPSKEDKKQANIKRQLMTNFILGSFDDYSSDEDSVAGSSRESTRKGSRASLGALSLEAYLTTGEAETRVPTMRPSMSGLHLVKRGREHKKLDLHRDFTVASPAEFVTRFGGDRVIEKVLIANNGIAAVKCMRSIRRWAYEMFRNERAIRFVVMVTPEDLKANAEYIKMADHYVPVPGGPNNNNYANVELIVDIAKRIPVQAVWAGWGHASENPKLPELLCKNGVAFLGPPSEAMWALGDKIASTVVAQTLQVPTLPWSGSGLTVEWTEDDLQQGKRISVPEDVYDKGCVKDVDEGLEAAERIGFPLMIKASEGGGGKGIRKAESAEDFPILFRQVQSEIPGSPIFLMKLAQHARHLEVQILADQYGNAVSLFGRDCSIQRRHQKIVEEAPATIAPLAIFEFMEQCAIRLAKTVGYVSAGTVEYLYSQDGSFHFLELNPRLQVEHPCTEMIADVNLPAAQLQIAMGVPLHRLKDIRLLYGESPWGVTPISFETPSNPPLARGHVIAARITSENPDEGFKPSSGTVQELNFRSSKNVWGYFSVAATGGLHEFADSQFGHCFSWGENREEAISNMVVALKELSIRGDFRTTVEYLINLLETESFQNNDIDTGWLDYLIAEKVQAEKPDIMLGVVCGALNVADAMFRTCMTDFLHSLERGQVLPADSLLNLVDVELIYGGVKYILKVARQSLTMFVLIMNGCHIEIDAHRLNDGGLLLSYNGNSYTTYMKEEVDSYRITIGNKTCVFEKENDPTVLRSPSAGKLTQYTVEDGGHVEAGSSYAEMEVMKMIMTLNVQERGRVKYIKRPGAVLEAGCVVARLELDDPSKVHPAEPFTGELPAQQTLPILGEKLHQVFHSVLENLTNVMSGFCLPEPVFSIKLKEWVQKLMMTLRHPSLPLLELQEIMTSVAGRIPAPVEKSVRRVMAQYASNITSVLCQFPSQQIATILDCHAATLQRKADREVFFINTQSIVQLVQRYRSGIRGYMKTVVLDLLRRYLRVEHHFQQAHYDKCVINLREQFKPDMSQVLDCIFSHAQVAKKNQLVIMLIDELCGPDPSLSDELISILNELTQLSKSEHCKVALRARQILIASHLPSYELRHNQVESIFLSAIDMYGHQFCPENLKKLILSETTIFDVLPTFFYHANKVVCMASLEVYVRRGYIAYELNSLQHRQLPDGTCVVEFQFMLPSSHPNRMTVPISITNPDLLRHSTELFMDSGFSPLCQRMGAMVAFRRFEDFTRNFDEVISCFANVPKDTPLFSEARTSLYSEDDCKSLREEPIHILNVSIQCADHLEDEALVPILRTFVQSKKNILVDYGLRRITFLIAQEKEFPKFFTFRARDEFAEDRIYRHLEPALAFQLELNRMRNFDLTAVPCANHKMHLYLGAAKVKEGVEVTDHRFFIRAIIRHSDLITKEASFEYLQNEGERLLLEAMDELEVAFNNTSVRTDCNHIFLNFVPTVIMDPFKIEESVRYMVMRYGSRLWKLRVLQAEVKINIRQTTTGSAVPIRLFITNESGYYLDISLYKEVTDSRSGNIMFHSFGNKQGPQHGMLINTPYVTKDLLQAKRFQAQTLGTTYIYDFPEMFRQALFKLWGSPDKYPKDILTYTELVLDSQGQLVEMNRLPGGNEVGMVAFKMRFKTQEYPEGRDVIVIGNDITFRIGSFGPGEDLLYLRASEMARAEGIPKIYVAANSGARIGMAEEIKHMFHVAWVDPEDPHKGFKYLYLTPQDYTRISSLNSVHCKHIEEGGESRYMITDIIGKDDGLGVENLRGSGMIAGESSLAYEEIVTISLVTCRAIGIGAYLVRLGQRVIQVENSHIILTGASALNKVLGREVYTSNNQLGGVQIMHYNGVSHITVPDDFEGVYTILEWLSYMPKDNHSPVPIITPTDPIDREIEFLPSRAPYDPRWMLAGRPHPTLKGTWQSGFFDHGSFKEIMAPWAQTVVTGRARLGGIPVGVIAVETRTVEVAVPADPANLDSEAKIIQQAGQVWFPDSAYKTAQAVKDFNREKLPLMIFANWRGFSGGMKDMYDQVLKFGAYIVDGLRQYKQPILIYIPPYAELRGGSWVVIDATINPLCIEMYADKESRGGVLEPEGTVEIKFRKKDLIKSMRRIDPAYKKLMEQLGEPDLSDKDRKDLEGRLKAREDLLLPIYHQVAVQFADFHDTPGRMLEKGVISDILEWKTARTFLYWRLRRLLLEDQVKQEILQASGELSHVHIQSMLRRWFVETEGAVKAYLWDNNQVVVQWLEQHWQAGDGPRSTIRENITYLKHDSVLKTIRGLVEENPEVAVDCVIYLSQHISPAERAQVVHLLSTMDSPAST
fungal (fACC2), sequence (Q00955 whole entry): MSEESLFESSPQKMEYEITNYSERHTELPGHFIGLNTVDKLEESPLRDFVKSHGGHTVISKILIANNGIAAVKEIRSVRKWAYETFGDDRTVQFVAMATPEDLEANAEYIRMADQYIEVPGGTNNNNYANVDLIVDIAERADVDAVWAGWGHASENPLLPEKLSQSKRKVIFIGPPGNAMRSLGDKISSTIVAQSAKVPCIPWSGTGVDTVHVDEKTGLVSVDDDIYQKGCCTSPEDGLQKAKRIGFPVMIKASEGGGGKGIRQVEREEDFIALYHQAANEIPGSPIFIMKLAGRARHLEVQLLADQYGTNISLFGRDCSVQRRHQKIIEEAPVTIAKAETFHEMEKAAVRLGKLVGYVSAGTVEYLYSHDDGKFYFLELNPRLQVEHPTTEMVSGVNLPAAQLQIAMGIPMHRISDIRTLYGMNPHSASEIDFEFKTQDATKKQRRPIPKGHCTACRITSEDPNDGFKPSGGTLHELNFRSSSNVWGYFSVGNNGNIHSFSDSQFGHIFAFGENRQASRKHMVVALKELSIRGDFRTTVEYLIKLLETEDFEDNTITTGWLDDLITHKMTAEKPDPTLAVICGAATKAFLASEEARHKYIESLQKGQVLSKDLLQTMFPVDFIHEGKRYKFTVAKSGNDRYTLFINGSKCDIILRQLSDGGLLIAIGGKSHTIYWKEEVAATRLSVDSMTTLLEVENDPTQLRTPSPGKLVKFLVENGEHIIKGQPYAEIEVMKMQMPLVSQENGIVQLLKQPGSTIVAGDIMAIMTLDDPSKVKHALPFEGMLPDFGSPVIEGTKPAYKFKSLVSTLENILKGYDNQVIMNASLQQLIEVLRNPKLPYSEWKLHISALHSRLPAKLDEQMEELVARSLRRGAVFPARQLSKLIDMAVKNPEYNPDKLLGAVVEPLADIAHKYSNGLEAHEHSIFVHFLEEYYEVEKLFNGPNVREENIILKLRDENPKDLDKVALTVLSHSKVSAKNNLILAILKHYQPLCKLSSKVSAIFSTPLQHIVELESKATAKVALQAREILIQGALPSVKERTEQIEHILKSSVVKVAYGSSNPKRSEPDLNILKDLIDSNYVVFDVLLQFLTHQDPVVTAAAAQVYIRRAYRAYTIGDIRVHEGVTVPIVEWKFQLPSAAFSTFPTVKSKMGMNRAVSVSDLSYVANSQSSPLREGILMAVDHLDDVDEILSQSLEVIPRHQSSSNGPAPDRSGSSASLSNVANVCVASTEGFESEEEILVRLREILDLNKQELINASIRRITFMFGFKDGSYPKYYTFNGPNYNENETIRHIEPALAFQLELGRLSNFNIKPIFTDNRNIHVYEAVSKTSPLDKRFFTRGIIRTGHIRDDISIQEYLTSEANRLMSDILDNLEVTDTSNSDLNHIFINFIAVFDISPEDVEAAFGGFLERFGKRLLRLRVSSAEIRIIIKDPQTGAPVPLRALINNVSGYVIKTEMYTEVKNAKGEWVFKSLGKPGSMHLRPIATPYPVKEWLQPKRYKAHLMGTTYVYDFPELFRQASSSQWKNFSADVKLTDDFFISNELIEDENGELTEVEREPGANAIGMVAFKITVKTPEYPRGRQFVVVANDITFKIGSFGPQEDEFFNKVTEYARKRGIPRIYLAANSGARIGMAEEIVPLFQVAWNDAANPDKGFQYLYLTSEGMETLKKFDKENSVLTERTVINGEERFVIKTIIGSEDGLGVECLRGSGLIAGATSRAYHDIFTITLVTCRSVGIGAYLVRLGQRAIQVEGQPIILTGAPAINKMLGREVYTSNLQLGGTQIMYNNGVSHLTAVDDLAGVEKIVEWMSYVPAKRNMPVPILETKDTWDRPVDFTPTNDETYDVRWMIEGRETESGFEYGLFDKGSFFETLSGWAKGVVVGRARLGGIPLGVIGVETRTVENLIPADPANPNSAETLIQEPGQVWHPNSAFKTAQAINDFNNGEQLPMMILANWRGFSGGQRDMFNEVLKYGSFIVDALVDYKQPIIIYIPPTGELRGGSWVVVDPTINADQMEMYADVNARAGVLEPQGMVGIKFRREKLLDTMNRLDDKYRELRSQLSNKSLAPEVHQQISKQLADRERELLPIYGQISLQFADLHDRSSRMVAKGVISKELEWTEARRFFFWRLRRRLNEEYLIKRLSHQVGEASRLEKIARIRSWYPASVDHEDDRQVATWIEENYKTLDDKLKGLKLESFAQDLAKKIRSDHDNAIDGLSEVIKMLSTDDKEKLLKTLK

SMILES | IC90 [1, 5] | IC90 (Rhizoctonia solani (Rs); [6]) | IC90 [2, 7] | IC90 (Diplodia maydis (Dm); [8]) | MIC (C. krusei; [9]) | IC50 (fungal (fACC2)) | IC90 (Septoria tritici (St); [10]) | MIC (C. albicans; [11]) | IC90 (Botrtyis cinerea (Bc); [12]) | IC90 [3, 13] | MIC (C. parapsilosis; [14]) | IC90 [4, 15] | IC50 (human (hACC2)) | IC90 [1] | IC90 (Rhizoctonia solani (Rs); [16]) | IC90 [2, 17] | IC90 (Diplodia maydis (Dm); [18]) | MIC (C. krusei; [19]) | IC90 (Septoria tritici (St); [20]) | MIC (C. albicans; [21]) | other results
COc1ccc(Cl)cc1[C@H](Cn1c(=O)n(C(C)(C)C(=O)NC(C)C)c(=O)c2c(C)c(-n3nccn3)sc21)OCC(C)(C)C#N [Compound I-227] | 2 µg/mL (≈ 3.11 µM) | 2 µg/mL (≈ 3.11 µM) | 2 µg/mL (≈ 3.11 µM) | 2 µg/mL (≈ 3.11 µM) | 0.25 to 1 µg/mL (≈ 0.389 to 1.56 µM) | 1 to 5 nM | > 50 µg/mL | 0.25 to 1 µg/mL (≈ 0.389 to 1.56 µM) | 2 µg/mL (≈ 3.11 µM) | > 50 µg/mL | 1.01 to 2 µg/mL (≈ 1.57 to 3.11 µM) | 2 µg/mL (≈ 3.11 µM) | 10 to 40 nM | – | – | – | – | – | – | – | –
COc1ccc(F)cc1[C@](C)(Cn1c(=O)n(C(C)(C)C(=O)NC(C)C)c(=O)c2c(C)c(-n3nccn3)sc21)OCCC#N [Compound I-229] | 0.08 µg/mL (≈ 0.131 µM) | 2 µg/mL (≈ 3.27 µM) | 2 µg/mL (≈ 3.27 µM) | > 50 µg/mL | 0.25 to 1 µg/mL (≈ 0.409 to 1.63 µM) | 1 to 5 nM | > 50 µg/mL | 0.25 to 1 µg/mL (≈ 0.409 to 1.63 µM) | 0.4 µg/mL (≈ 0.654 µM) | > 50 µg/mL | 1.01 to 2 µg/mL (≈ 1.65 to 3.27 µM) | 0.4 µg/mL (≈ 0.654 µM) | > 40 nM | – | – | – | – | – | – | – | –
COc1ccc(F)cc1[C@@](C)(Cn1c(=O)n(C(C)(C)C(=O)NC(C)C)c(=O)c2c(C)c(-n3nccn3)sc21)OCCC#N [Compound I-230] | 0.08 µg/mL (≈ 0.131 µM) | 0.08 µg/mL (≈ 0.131 µM) | 0.08 µg/mL (≈ 0.131 µM) | 0.4 µg/mL (≈ 0.654 µM) | 0.25 to 1 µg/mL (≈ 0.409 to 1.63 µM) | 0.3 to 1 nM | > 50 µg/mL | 0.25 to 1 µg/mL (≈ 0.409 to 1.63 µM) | 0.4 µg/mL (≈ 0.654 µM) | 2 µg/mL (≈ 3.27 µM) | 1.01 to 2 µg/mL (≈ 1.65 to 3.27 µM) | 0.4 µg/mL (≈ 0.654 µM) | 10 to 40 nM | – | – | – | – | – | – | – | –
COc1ccc(F)cc1[C@@](O)(CCO)Cn1c(=O)n(C(C)(C)C(=O)NC(C)C)c(=O)c2c(C)c(-n3nccn3)sc21 [Compound I-231] | – | – | – | – | – | 1 to 5 nM | – | – | – | – | – | – | 10 to 40 nM | 0.4 µg/mL (≈ 0.68 µM) | 0.08 µg/mL (≈ 0.136 µM) | 2 µg/mL (≈ 3.4 µM) | 2 µg/mL (≈ 3.4 µM) | 0.06 to 0.249 µg/mL (≈ 0.102 to 0.423 µM) | > 50 µg/mL | 0.06 to 0.249 µg/mL (≈ 0.102 to 0.423 µM) | IC90 (Botrtyis cinerea (Bc); [22]): 2 µg/mL (≈ 3.4 µM); IC90 [3, 23]: 10 µg/mL (≈ 17 µM); MIC (C. parapsilosis; [24]): 1.01 to 2 µg/mL (≈ 1.72 to 3.4 µM); IC90 [4, 25]: 2 µg/mL (≈ 3.4 µM)
Cc1c(-n2nccn2)sc2c1c(=O)n(C(C)(C)C(=O)NC(C)C)c(=O)n2C[C@H](OC(C)C)c1cc(F)ccc1CCC#N [Compound I-234] | – | – | – | – | – | 1 to 5 nM | – | – | – | – | – | – | 10 to 40 nM | 0.08 µg/mL (≈ 0.131 µM) | 0.08 µg/mL (≈ 0.131 µM) | 0.4 µg/mL (≈ 0.656 µM) | 2 µg/mL (≈ 3.28 µM) | 1.01 to 2 µg/mL (≈ 1.66 to 3.28 µM) | > 50 µg/mL | 2.01 to 4 µg/mL (≈ 3.3 to 6.56 µM) | IC90 (Botrtyis cinerea (Bc); [22]): 0.4 µg/mL (≈ 0.656 µM); IC90 [3, 23]: > 50 µg/mL; MIC (C. parapsilosis; [24]): 2.01 to 4 µg/mL (≈ 3.3 to 6.56 µM); IC90 [4, 25]: 0.08 µg/mL (≈ 0.131 µM)
Cc1c(-n2nccn2)sc2c1c(=O)n(C(C)(C)C(=O)NC(C)C)c(=O)n2C[C@H](OCC(C)(C)O)c1cc(F)ccc1OCC#N [Compound I-235] | – | – | – | – | – | 1 to 5 nM | – | – | – | – | – | – | 10 to 40 nM | 0.4 µg/mL (≈ 0.623 µM) | 0.4 µg/mL (≈ 0.623 µM) | 0.4 µg/mL (≈ 0.623 µM) | 2 µg/mL (≈ 3.12 µM) | 2.01 to 4 µg/mL (≈ 3.13 to 6.23 µM) | > 50 µg/mL | 0.25 to 1 µg/mL (≈ 0.39 to 1.56 µM) | IC90 (Botrtyis cinerea (Bc); [22]): 2 µg/mL (≈ 3.12 µM); IC90 [3, 23]: 10 µg/mL (≈ 15.6 µM); MIC (C. parapsilosis; [24]): 1.01 to 2 µg/mL (≈ 1.57 to 3.12 µM); IC90 [4, 25]: 2 µg/mL (≈ 3.12 µM)
CCc1ccc(F)cc1[C@H](Cn1c(=O)n(C(C)(C)C(=O)NC(C)C)c(=O)c2c(C)c(-n3nccn3)sc21)OCC(C)(C)C#N [Compound I-238] | 0.08 µg/mL (≈ 0.128 µM) | 0.08 µg/mL (≈ 0.128 µM) | 0.08 µg/mL (≈ 0.128 µM) | 2 µg/mL (≈ 3.21 µM) | > 4.01 µg/mL | 1 to 5 nM | > 50 µg/mL | 1.01 to 2 µg/mL (≈ 1.62 to 3.21 µM) | 0.08 µg/mL (≈ 0.128 µM) | > 50 µg/mL | 2.01 to 4 µg/mL (≈ 3.22 to 6.41 µM) | 0.08 µg/mL (≈ 0.128 µM) | 5 to 10 nM | – | – | – | – | – | – | – | –
